According to patent US9206159B2, “Piperazine-piperidine compounds as hepatitis C virus inhibitors” (Theravance Biopharma R&D IP, LLC, priority 2012, dated 2015):

What was measured:
[1] = system: HCV genotype 1a replicon cell line; assay: HCV Genotype 1a Replicon Assay; type: cell-based, hepatitis C virus; settings: Huh7.5 cell background, NS3-specific protease activity in lysates, 48 or 72 hours; for EC50: Hepatitis C virus, read-out: Genotype 1a (pEC50 class) (converted)
Procedure, shortened: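 Huh7.5-based subgenomic genotype 1a replicon cells, plated without G418, exposed to compound dose-responses (0.5% DMSO final) for 48 or 72 h at 37 °C. Lysate NS3/4a protease activity read with 15 μM FRET substrate, 20 min at 37 °C (Ex 340/Em 509 nm); EC50 from 4-parameter fit.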

[2] = system: HCV genotype 1b replicon cell line; assay: HCV Genotype 1b Replicon Assay; type: cell-based, hepatitis C virus; settings: Renilla luciferase readout, 48 hours; for Genotype 1b (pEC50 class): Huh7 cell background; for EC50: Hepatitis C virus, Huh-7, Huh7 cell background, read-out: Genotype 1b (pEC50 class) (converted)
Text: Assay 1: HCV Genotype 1b Replicon Assay
The HCV genotype 1b replicon cell line was obtained from Apath LLC (Brooklyn, N.Y.) (APC144; Huh7 cell background). This subgenomic replicon contains the N-terminus of the HCV core protein fused to the neomycin-resistance selectable marker. The EMCV IRES lies downstream and drives expression of humanized Renilla luciferase fused to the non-structural proteins NS3-NS5B. This cell line was used to determine compound potency using the luciferase activity readout as a measurement of compound inhibition of replicon levels.
Cells were grown at 37° C. in a 5% CO2 humidified incubator in DMEM (Invitrogen) with 10% FBS (HyClone), 1×NEAA (Invitrogen), 1× Pen-Strep (Invitrogen), and 500 μg/mL G418 (Invitrogen). On day 1 of the assay, cells were plated at 10,000 cells/well in white 96-well tissue culture plates (Costar) in 200 μL media lacking G418. Four hours later, once the cells have adhered, the media was removed and replaced with media (no G418) containing dose-responses of test compounds. Compounds were initially diluted in DMSO and then diluted another 200× in media to bring the final DMSO concentration down to 0.5%. The cells were incubated with test compounds for 48 hours. At the end of the incubation period, media and compound were removed from the plates and the luciferase activity was determined using Promega Renilla-Glo reagents.
To analyze the data, the luciferase activity was plotted vs. the compound concentration, and EC50 values were determined from a 4-parameter robust fit model with the GraphPad Prism software package (GraphPad Software, Inc., San Diego, Calif.). Results are expressed as the negative decadic logarithm of the EC50 value, pEC50.
Test compounds having a higher pEC50 value in this assay show greater inhibition of HCV genotype 1b replication.

| Structure (SMILES) | Genotype 1a (pEC50 class) [1] | Genotype 1b (pEC50 class) [2] | EC50 [1] | EC50 [2] |
| --- | --- | --- | --- | --- |
| COC(=O)N[C@H](C(=O)N1CCC[C@H]1c1nc(-c2ccc(-c3ccc(NC(=O)N4CCN(C5CCN(C(=O)OC(C)(C)C)CC5)CC4)cc3)cc2)c[nH]1)C(C)C [Example 1-1] | C (C represents pEC50 between and 9 and about 10, (EC50 between 1 nM and 0.1 nM)) | D (D represents pEC50>10 (EC50<0.1 nM)) | – | – |
| COC(=O)N[C@H](C(=O)N1CCC[C@H]1c1nc(-c2ccc(-c3ccc(NC(=O)N4CCN(C5CCN(C(=O)C6CC6)CC5)CC4)cc3)cc2)c[nH]1)C(C)C [Example 1-8] | C (C represents pEC50 between and 9 and about 10, (EC50 between 1 nM and 0.1 nM)) | D (D represents pEC50>10 (EC50<0.1 nM)) | – | – |
| COC(=O)N[C@H](C(=O)N1CCC[C@H]1c1nc(-c2ccc(-c3ccc(NC(=O)N4CCN(C5CCN(C(=O)[C@H]6CC6(C)C)CC5)CC4)cc3OC(F)(F)F)cc2)c[nH]1)C(C)C [Example 1-12] | C (C represents pEC50 between and 9 and about 10, (EC50 between 1 nM and 0.1 nM)) | D (D represents pEC50>10 (EC50<0.1 nM)) | – | – |
| COC(=O)N[C@H](C(=O)N1CCC[C@H]1c1nc(-c2ccc(-c3ccc(NC(=O)N4CCN(C5CCN(C(=O)C6CC6)CC5)CC4)cc3OC(F)(F)F)cc2)c[nH]1)C(C)C [Example 1-13] | C (C represents pEC50 between and 9 and about 10, (EC50 between 1 nM and 0.1 nM)) | D (D represents pEC50>10 (EC50<0.1 nM)) | – | – |
| COC(=O)N[C@H](C(=O)N1CCC[C@H]1c1nc(-c2ccc(-c3ccc(NC(=O)N4CCN(C5CCN(C(=O)OC(C)(C)C)CC5)CC4)cc3OC(F)(F)F)cc2)c[nH]1)C(C)C [Example 1-14] | C (C represents pEC50 between and 9 and about 10, (EC50 between 1 nM and 0.1 nM)) | D (D represents pEC50>10 (EC50<0.1 nM)) | – | – |
| COC(=O)N[C@H](C(=O)N1CCC[C@H]1c1nc(-c2ccc(-c3ccc(NC(=O)N4CCN(C5CCN(C(=O)C(C)(C)CO)CC5)CC4)cc3OC(F)(F)F)cc2)c[nH]1)C(C)C [Example 1-17] | C (C represents pEC50 between and 9 and about 10, (EC50 between 1 nM and 0.1 nM)) | D (D represents pEC50>10 (EC50<0.1 nM)) | – | – |
| COC(=O)N[C@H](C(=O)N1C[C@@H](C)C[C@H]1c1nc(-c2ccc(-c3cc(F)c(NC(=O)N4CCN(C5CCN(C(=O)C(C)(C)C)CC5)CC4)cc3OC(F)(F)F)cc2)c[nH]1)C(C)C [Example 2-5] | D (D represents pEC50>10 (EC50<0.1 nM)) | D (D represents pEC50>10 (EC50<0.1 nM)) | – | – |
| COC(=O)N[C@H](C(=O)N1C[C@@H](C)C[C@H]1c1nc(-c2ccc(-c3ccc(NC(=O)N4CCN(C5CCN(C(=O)C(C)(C)C)CC5)CC4)cc3OC(F)(F)F)cc2)c[nH]1)C(C)C [Example 2-9] | D (D represents pEC50>10 (EC50<0.1 nM)) | D (D represents pEC50>10 (EC50<0.1 nM)) | – | – |
| COC(=O)N[C@H](C(=O)N1C[C@@H](C)C[C@H]1c1nc(-c2ccc(-c3cc(F)c(NC(=O)N4CCN(C5CCN(C(=O)[C@H]6CC6(C)C)CC5)CC4)cc3OC(F)(F)F)cc2)c[nH]1)C(C)C [Example 2-16] | D (D represents pEC50>10 (EC50<0.1 nM)) | D (D represents pEC50>10 (EC50<0.1 nM)) | – | – |
| COC(=O)N[C@H](C(=O)N1C[C@@H](C)C[C@H]1c1nc(-c2ccc(-c3ccc(NC(=O)N4CCN(C5CCN(C(=O)[C@H]6CC6(C)C)CC5)CC4)cc3OC(F)(F)F)cc2)c(Cl)[nH]1)C(C)C [Example 2-17] | D (D represents pEC50>10 (EC50<0.1 nM)) | D (D represents pEC50>10 (EC50<0.1 nM)) | – | – |
| COC(=O)N[C@H](C(=O)N1C[C@@H](C)C[C@H]1c1nc(-c2ccc(-c3ccc(NC(=O)N4CCN(C5CCN(C(=O)C6CCC6)CC5)CC4)cc3OC(F)(F)F)cc2)c[nH]1)C(C)C [Example 2-19] | C (C represents pEC50 between and 9 and about 10, (EC50 between 1 nM and 0.1 nM)) | D (D represents pEC50>10 (EC50<0.1 nM)) | – | – |
| [2H]C([2H])([2H])C1(C([2H])([2H])[2H])CC1C(=O)N1CCC(N2CCN(C(=O)Nc3ccc(-c4ccc(-c5c[nH]c([C@@H]6C[C@H](C)CN6C(=O)[C@@H](NC(=O)OC)C(C)C)n5)cc4)c(OC(F)(F)F)c3)CC2)CC1 (stereo partly drawn) [Example 2-20] | D (D represents pEC50>10 (EC50<0.1 nM)) | D (D represents pEC50>10 (EC50<0.1 nM)) | – | – |
| COC(=O)N[C@H](C(=O)N1C[C@@H](C)C[C@H]1c1nc(-c2ccc(-c3ccc(NC(=O)N4CCN(C5CCN(C(=O)OC(C)(C)C)CC5)CC4)cc3OC(F)(F)F)cc2)c[nH]1)C(C)C [Example 2-21] | D (D represents pEC50>10 (EC50<0.1 nM)) | D (D represents pEC50>10 (EC50<0.1 nM)) | – | – |
| COC(=O)N[C@H](C(=O)N1CCC[C@H]1c1nc(-c2ccc(-c3ccc(NC(=O)N4CCC(N5CCN(C(=O)[C@H]6CC6(C)C)CC5)CC4)cc3)cc2)c[nH]1)C(C)C [Example 3-2] | B (B represents pEC50 between 8 and 9 (EC50 between 1 and 10 nM)) | D (D represents pEC50>10 (EC50<0.1 nM)) | – | – |
| COC(=O)N[C@H](C(=O)N1C[C@@H](C)C[C@H]1c1nc2c(ccc3cc(-c4ccc(NC(=O)N5CCN(C6CCN(C(=O)[C@H]7CC7(C)C)CC6)CC5)cc4OC(F)(F)F)ccc32)[nH]1)C(C)C [Example 6-1] | D (D represents pEC50>10 (EC50<0.1 nM)) | D (D represents pEC50>10 (EC50<0.1 nM)) | – | – |
| COC(=O)N[C@H](C(=O)N1C[C@@H](C)C[C@H]1c1nc2c(ccc3cc(-c4ccc(NC(=O)N5CCN(C6CCN(C(=O)C(C)(C)CO)CC6)CC5)cc4OC(F)(F)F)ccc32)[nH]1)C(C)C [Example 6-4] | – | – | < 0.1 nM | < 0.1 nM |
| COC(=O)N[C@H](C(=O)N1C[C@@H](C)C[C@H]1c1nc(-c2ccc(-c3ccc(NC(=O)N4CCN(C5CCN(C(=O)C(C)(C)C)CC5)CC4)cc3OC(F)(F)F)cc2)c(Cl)[nH]1)C(C)C [Example 7, [(S)-1-((2S,4S)-2-{5-Chloro-4-[4′-({4-[1-(2,2-dimethyl-propionyl)-piperidin-4-yl]-piperazine-1-carbonyl}-amino)-2′-trifluoromethoxy-biphenyl-4-yl]-1H-imidazol-2-yl}-4-methyl-pyrrolidine-1-carbonyl)-2-methyl-propyl]-carbamic acid methyl ester] | – | – | < 0.1 nM | < 0.1 nM |
| COC(=O)N[C@H](C(=O)N1C[C@@H](C)C[C@H]1c1nc(-c2ccc(-c3ccc(NC(=O)N4CCC(N5CCN(C(=O)C(C)(C)CO)CC5)CC4)cc3OC(F)(F)F)cc2)c[nH]1)C1CCOCC1 [Example 9-1] | C (C represents pEC50 between and 9 and about 10, (EC50 between 1 nM and 0.1 nM)) | D (D represents pEC50>10 (EC50<0.1 nM)) | – | – |
| COC(=O)N[C@H](C(=O)N1C[C@@H](C)C[C@H]1c1nc(-c2ccc(-c3ccc(NC(=O)N4CCC(N5CCN(C(=O)C(C)(C)C)CC5)CC4)cc3OC(F)(F)F)cc2)c(F)[nH]1)C1CCOCC1 [Example 9-2] | – | – | < 0.1 nM | < 0.1 nM |
| COC(=O)N[C@H](C(=O)N1C[C@@H](C)C[C@H]1c1nc(-c2ccc(-c3ccc(NC(=O)N4CCC(N5CCN(C(=O)C(C)(C)CO)CC5)CC4)cc3OC(F)(F)F)cc2)c(F)[nH]1)C1CCOCC1 [Example 9-3] | – | – | 0.1 to 1 nM | < 0.1 nM |
| COC(=O)N[C@H](C(=O)N1C[C@@H](C)C[C@H]1c1nc(-c2ccc(-c3cc(Cl)c(NC(=O)N4CCC(N5CCN(C(=O)[C@H]6CC6(C)C)C[C@@H]5C)CC4)cc3OC(F)(F)F)cc2)c[nH]1)C(C)C [Example 11, ((S)-1-{(2S,4S)-2-[4-(5′-Chloro-4′-{[4-((S)-4-dimethylcyclopropane-carbonyl-2-methyl-piperazin-1-yl)-piperidine-1-carbonyl]-amino}-2′-trifluoromethoxy-biphenyl-4-yl)-1H-imidazol-2-yl]-4-methyl-pyrrolidine-1-carbonyl}-2-methyl-propyl)-carbamic acid methyl ester] | – | – | < 0.1 nM | < 0.1 nM |
